According to patent US20220202810A1 (Lake O'Hara LLC, priority 2020, published 2022):
Like-named read-outs stand apart in the source and are kept apart here.

Tests used:
[1] = PBPK modeling of schizophrenia patients, FDA label and modified dosing regimens; design: species or system human; conditions: for Days Reduced to Reach Pharmacokinetic Endpoints: EC50 / Days Reduced to Reach Pharmacokinetic Endpoints: EC80 / Days Reduced to Reach Pharmacokinetic Endpoints: Steady State: modified regimen of Table F vs FDA label, Obese
Excerpt: PBPK Modeling of Patients Dosed with Brexpiprazole According to the FDA Label
Although the PBPK modeling was based on the dosing regimen for schizophrenia according to the FDA label (REXULTI®, 3/2020), pharmacokinetic parameters are dose-dependent and expected to be similar in MDD.
In order to simulate brexpiprazole under various conditions, a whole-body PBPK model was constructed to capture the drug's kinetics in major tissues. Model tissue compartments included adipose, bone, brain, large intestine, small intestine, heart, kidney, liver, lung, muscle, spleen, stomach, and skin tissues, as well as venous and arterial blood compartments. In order to accurately capture first-pass clearance effects on the drug, the model also included correct representation of the gastrointestinal tract organs and the liver. […] Drug distribution into each tissue compartment was modeled assuming perfusion-limited kinetics, with partitioning into tissue described by a partition coefficient (Kp) estimated using methods described by Poulin and Theil (2002). Brexpiprazole-specific biochemical parameters such as the log of octanol:water partition coefficient (logP), negative log acid dissociation constant (pKa), fraction unbound in the plasma (fup), blood:plasma concentration ratio (BP), and clearance were obtained from literature; additional physiochemical properties used to calculate Kps were obtained via DrugBank. […] Simulations were carried out in a virtual population of 500 normal-weight and 500 obese individuals with age- and sex-specific physiological parameters (i.e. tissue flows and volumes) sampled from the National Health and Nutrition Examination Survey (NHANES) dataset.
PBPK Modeling of Schizophrenia Patients Treated with Higher Doses According to Modified Methods
A modified dosing regimen was developed so that obese and CYP2D6 PM patients reach therapeutic levels earlier (Table F). […] On day 8, patients returned to administering the recommended dose once daily. […] On day 15, patients returned to administering the recommended dose once daily.

[2] = cited from earlier work
[3] = cited from earlier work; remark: listed apart in the source
[4] = brexpiprazole patients; cited from earlier work

O=c1ccc2ccc(OCCCCN3CCN(c4cccc5sccc45)CC3)cc2[nH]1 [Brexpiprazole, 7-{4-[4-(1-Benzothiophen-4-yl)piperazin-1-yl]butoxy}quinolin-2(1H)-one]
Days Reduced to Reach Pharmacokinetic Endpoints: EC50 ([1]; EM): 3 days
Days Reduced to Reach Pharmacokinetic Endpoints: EC80 ([1]; EM): 3 days
Days Reduced to Reach Pharmacokinetic Endpoints: Steady State ([1]; EM): -4 days
Days Reduced to Reach Pharmacokinetic Endpoints: EC50 ([1]; PM): 2 days
Days Reduced to Reach Pharmacokinetic Endpoints: EC80 ([1]; PM): 5 days
Days Reduced to Reach Pharmacokinetic Endpoints: Steady State ([1]; PM): -29 days
time to reach therapeutic concentrations vs once daily dosing ([1]; schizophrenia, normal-weight CYP2D6 PM, Modified Dosing Regimen 3): three days faster
time to reach therapeutic concentrations vs FDA label dosing ([1]; schizophrenia, obese CYP2D6 EM, twice the starting and recommended daily doses for the first 7 days): three days faster
time to reach therapeutic concentrations vs once daily dosing ([1]; schizophrenia, obese CYP2D6 PM, twice the starting and recommended daily doses for the first 14 days): five days faster
decrease of baseline clearance by CYP2D6 PM status ([2]; CYP2D6 PM): ~30%
brexpiprazole clearance due to CYP3A4 ([2]; based on the literature): 46.7%
clearance due to other routes ([2]; based on the literature): 10%
remaining clearance due to CYP2D6 ([2]; based on the literature): 43.3%
effect of weight on the pharmacokinetics of brexpiprazole ([2]; previous studies, no patients with BMI>35 kg/m^2): less than 20%
renal clearance ([2]; share of brexpiprazole clearance): ~1%
AUC Observed ([3]; NDA Study1, IV, 0.25 mg): 172 ng·h/mL
Cmax Observed ([3]; NDA Study1, IV, 0.25 mg): 4.73 ng/mL
Tmax Observed ([3]; NDA Study1, IV, 0.25 mg): 1 h
AUC Observed ([3]; NDA Study1, PO, 0.2 mg): 123 ng·h/mL
Cmax Observed ([3]; NDA Study1, PO, 0.2 mg): 2.62 ng/mL
Tmax Observed ([3]; NDA Study1, PO, 0.2 mg): 2 h
AUC Observed ([3]; NDA Study1, PO, 0.5 mg): 287 ng·h/mL
Cmax Observed ([3]; NDA Study1, PO, 0.5 mg): 6.64 ng/mL
Tmax Observed ([3]; NDA Study1, PO, 0.5 mg): 4 h
AUC Observed ([3]; NDA Study1, PO, 1 mg): 636 ng·h/mL
Cmax Observed ([3]; NDA Study1, PO, 1 mg): 11.70 ng/mL
Tmax Observed ([3]; NDA Study1, PO, 1 mg): 6 h
AUC Observed ([3]; NDA Study1, PO, 2 mg): 1690 ng·h/mL
Cmax Observed ([3]; NDA Study1, PO, 2 mg): 22.10 ng/mL
Tmax Observed ([3]; NDA Study1, PO, 2 mg): 6 h
AUC Observed ([3]; NDA Study2, PO, 2 mg): 2160 ng·h/mL
Cmax Observed ([3]; NDA Study2, PO, 2 mg): 24.60 ng/mL
Tmax Observed ([3]; NDA Study2, PO, 2 mg): 4 h
AUC Observed ([3]; NDA Study2, PO, 4 mg): 2760 ng·h/mL
Cmax Observed ([3]; NDA Study2, PO, 4 mg): 47.20 ng/mL
Tmax Observed ([3]; NDA Study2, PO, 4 mg): 6 h
AUC Observed ([3]; NDA Study2, PO, 6 mg): 5230 ng·h/mL
Cmax Observed ([3]; NDA Study2, PO, 6 mg): 71.10 ng/mL
Tmax Observed ([3]; NDA Study2, PO, 6 mg): 6 h
AUC Observed ([3]; NDA Study2, PO, 8 mg): 7920 ng·h/mL
Cmax Observed ([3]; NDA Study2, PO, 8 mg): 79.20 ng/mL
Tmax Observed ([3]; NDA Study2, PO, 8 mg): 6 h
akathisia rates [4]: dose-dependent
